Here are results for 12 compounds from patent US7109229B2, “Methods and compounds for treating proliferative diseases” (Eli Lilly and Company, priority 2000, dated 2006).

A word on the pIC50: it is the negative decadic logarithm of the IC50, by convention in mol/L. For orientation: melting point means the temperature, or range, at which the solid turns liquid.

pIC50: −log10 of the molar value. Counter-ions that a name gives are not always drawn. Some results are limits rather than exact numbers.

The target in series [1] is T1, Cyclin D1-cdk4 (Homo sapiens, UniProt P11802). The series can be described thus: Cyclin D1-cdk4 kinase activity with the Rb21 protein as substrate. Particulars: Table 1; Rb21 protein substrate; read-out: Rb21 IC50. The class given is biochemical. As to the method:
The compounds of Formula I were tested using in vitro. An important in vitro test is the ability of the compound to inhibit the activity of the CDK4 enzyme. This test is done using Rb^ING and/or Rb^21 substrates as described in the literature ([…]., et al, J. Biol. Chem. 273, 26506-26515 (1998)). […] The reaction was incubated at room temperature (about 74° F.) for 60 minutes, and then terminated by the addition of 100 ul of 25% trichloroacetic acid. Next, the reaction was filtered through a Millipore Multiscreen-FC Plate-Catalog number MAFC NOB 10, and the plate was washed 2 times with 320 ul each of 10% trichloroacetic acid, followed by the addition of 100 ul of scintillation fluid and quantitation on a Packard Instruments, Top Count, scintillation counter.

The target in series [2] is T1, Cyclin D1-cdk4. In words: Cyclin D1-cdk4 kinase activity with the ING peptide as substrate. Type of series: biochemical. Particulars: Table 1; ING peptide substrate; read-out: RbING IC50. The method, then: The compounds of Formula I were tested using in vitro. An important in vitro test is the ability of the compound to inhibit the activity of the CDK4 enzyme. This test is done using Rb^ING and/or Rb^21 substrates as described in the literature (KONSTANTINIDIS, A. K., et al, J. Biol. Chem. 273, 26506–26515 (1998)). The test yields the micromolar concentration of the test compound, which produces a 50% inhibition of the CDK4 enzyme activity.
Assay of Cyclin D1-cdk4 Kinase Activity with the ING Peptide as Substrate.
The cyclin D1-cdk4 kinase activity of a compound was assayed by preparing a 100 ul reaction at the following concentrations: 35 mM Hepes pH 7.0, 10 mM MgCl2, 300 uM ATP, 200 uM ING peptide, 1.0 uCi of γ-^33P-ATP, 4.34 ug of cyclin D-cdk4 enzyme, 4% DMSO, and various concentrations of inhibitor. The reaction was incubated at room temperature (about 74° F.) for 60 minutes, and then terminated by the addition of 100 ul of 10% phosphoric acid. Next, the reaction was filtered through a Millipore Multiscreen-PH Plate—Catalog number MAPH NOB 10, and the plate was washed 2 times with 320 ul each of 0.5% phosphoric acid, followed by the addition of 100 ul of scintillation fluid and quantitation on a Packard Instruments, Top Count, scintillation counter.

The next series has as its system protein kinase C. Particulars: background, literature; cited from earlier work.
In a further series the test system is protein kinase A. Particulars: background, literature; cited from earlier work.

T1 sequence (P11802 whole entry): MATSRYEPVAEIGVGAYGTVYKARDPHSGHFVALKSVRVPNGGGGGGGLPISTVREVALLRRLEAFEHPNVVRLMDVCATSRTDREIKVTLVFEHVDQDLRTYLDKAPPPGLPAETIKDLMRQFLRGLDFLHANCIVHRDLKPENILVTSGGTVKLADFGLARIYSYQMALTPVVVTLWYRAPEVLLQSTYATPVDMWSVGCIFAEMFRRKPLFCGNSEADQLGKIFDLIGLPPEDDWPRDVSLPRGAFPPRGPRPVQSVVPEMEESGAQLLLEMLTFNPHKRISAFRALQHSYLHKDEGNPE
T1 sequence (P24385 whole entry partner): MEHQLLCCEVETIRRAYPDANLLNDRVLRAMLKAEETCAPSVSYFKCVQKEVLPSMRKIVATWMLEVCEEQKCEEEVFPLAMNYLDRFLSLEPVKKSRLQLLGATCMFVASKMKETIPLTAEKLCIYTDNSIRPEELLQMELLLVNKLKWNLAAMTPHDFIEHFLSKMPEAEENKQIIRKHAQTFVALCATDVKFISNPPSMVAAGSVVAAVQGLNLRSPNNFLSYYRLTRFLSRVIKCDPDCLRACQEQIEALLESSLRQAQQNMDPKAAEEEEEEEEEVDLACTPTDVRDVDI

For `Cn1ccc2ccc3c4[nH]c5ccccc5c4c4c(c3c21)C(=O)NC4=O` [Example 2, 5-Methyl-7H,13H-indolo[6,7-a]-pyrrolo[3,4-c]-carbazole-6,8-dione], the pIC50 at Cyclin D1-cdk4 [1] was 7.67.
Consider `COc1ccc2c3c4c(c5c(ccc6ccn(C)c65)c3n(CCCO)c2c1)C(=O)NC4=O` [Example 11, 13-(3-Hydroxy-propyl)-11-methoxy-5-methyl-5H,13H-indolo[6,7-a]pyrrolo[3,4-c]carbazole-6,8-dione], for which the negative-log IC50 (pIC50) at Cyclin D1-cdk4 [1] was 7.94.
As for `COc1ccc2c3c4c(c5c(ccc6ccn(C)c65)c3n(CCN3CCC(C(N)=O)CC3)c2c1)C(=O)NC4=O` [Example 36, 11-Methoxy-5-methyl-13-(1-ethyl-piperidine-4-carboxylic acid amide)-7H-indolo[6,7-a]pyrrolo[3,4-c]carbazole-6,8-dione], the negative logarithm of the IC50 (pIC50) on Cyclin D1-cdk4 [2] is 7.08; on Cyclin D1-cdk4 [1], 7.45.
Taken in the same sequence, the figures for `COc1ccc2c3c4c(c5c(ccc6ccn(C)c65)c3n(CCCNCCN(C)C)c2c1)C(=O)NC4=O` [Example 55, 11-Methoxy-5-methyl-13-(N,N-dimethyl-N′-propyl-ethane-1,2-diamine)-7H-indolo[6,7-a]pyrrolo[3,4-c]carbazole-6,8-dione] were 7.38 and 7.61.
For the compound `COc1ccc2c3c4c(c5c(ccc6ccn(C)c65)c3n(CCCNCCN(C)C)c2c1)C(=O)NC4=O` [Example 56, 11-Methoxy-5-methyl-13-(N,N-dimethyl-N′-propyl-ethane-1,2-diamine)-7H-indolo[6,7-a]pyrrolo[3,4-c]carbazole-6,8-dione dihydrochloride], the pIC50 was 7.00 at Cyclin D1-cdk4 [2] and 7.75 at Cyclin D1-cdk4 [1].
Turning to `COC(=O)[C@H](C)NCCCn1c2cc(OC)ccc2c2c3c(c4c(ccc5ccn(C)c54)c21)C(=O)NC3=O` [Example 59, (S)-(+)-11-Methoxy-5-methyl-13-(2-propylamino-propionic acid methyl ester)-7H-indolo[6,7-a]pyrrolo[3,4-c]carbazole-6,8-dione], the results for the pIC50 at Cyclin D1-cdk4 [2] and at Cyclin D1-cdk4 [1] were 6.92 and 7.35, respectively.
`CN1CCN(CCc2cccc3c2[nH]c2c4ccc5ccn(C)c5c4c4c(c32)C(=O)NC4=O)CC1` [Example 68, 5-Methyl-12-(1-ethyl-4-methyl-piperazine)-7H,13H-indolo[6,7-a]pyrrolo[3,4-c]carbazole-6,8-dione]: the pIC50 was 7.65 at Cyclin D1-cdk4 [2] and 7.96 on Cyclin D1-cdk4 [1].
For the compound `CN1CCN(CCCc2cccc3c2[nH]c2c4ccc5ccn(C)c5c4c4c(c32)C(=O)NC4=O)CC1` [Example 79, 12-(1-Methyl-4-propyl-piperazine)-5-methyl-7H,13H-indolo[6,7-a]pyrrolo[3,4-c]carbazole-6,8-dione], the pIC50 was 7.12 at Cyclin D1-cdk4 [2] and 7.46 at Cyclin D1-cdk4 [1].
The corresponding values for `Cn1ccc2ccc3c4[nH]c5c(CCN6CCCCC6)cccc5c4c4c(c3c21)C(=O)NC4=O` [Example 83, 5-Methyl-12-(2-ethylpiperidine)-7H,13H-indolo[6,7-a]pyrrolo[3,4-c]carbazole-6,8-dione] are 7.11 and 7.96.
On to `Cc1ccc2c(c1)[nH]c1c3ccc4ccn(C)c4c3c3c(c21)C(=O)NC3=O` [Example 92, 11-Methyl-5-methyl-7H,13H-indolo[6,7-a]pyrrolo[3,4-c]6,8-dione], for which the melting point was 170 °C (dec.).
`Cn1ccc2ccc3c4[nH]c5ccc(C(F)(F)F)cc5c4c4c(c3c21)C(=O)NC4=O` [Example 94, 10-Trifluoromethyl-5-methyl-7H,13H-indolo[6,7-a]pyrrolo[3,4-c]6,8-dione]: the melting point is 100 to 110 °C (dec.).
As for `CN1CC[C@H](c2c(O)cc(O)c3c(=O)cc(-c4ccccc4Cl)oc23)[C@H](O)C1` [Flavopiridol], in the series with protein kinase C, the “concentration at which protein kinase C is inhibited” value is reported as no less than 10 μM/L. In addition, the “concentration at which protein kinase A is inhibited” value in the series with protein kinase A was no less than 10 μM/L.
